US6495715B2, “Calcium channel blockers” (Warner-Lambert Company, priority 1997, dated 2002)
Counter-ions that a name gives are not always drawn. Each block holds one molecule with its values, some of them ahead of it.

Molecular target: T1, N-type Ca2+ channel (Homo sapiens, UniProt Q00975)
T1 construct: host or cells: IMR-32 cells, differentiated with dibutyryl cAMP and bromodeoxyuridine
Test: Measurement of N-type Ca2+ channel blocking potencies in IMR-32 cells using the fluorescent Ca2+ indicator Indo-1
Format: cell-based
Details: for inhibition at 1 µM / IMR 32 % of Blockade @ 1 μM: 1 μM compound; for inhibition at 1 µM: read-out: IMR 32 % of Blockade @ 1 μM; for inhibition at 10 µM / IMR 32 % of Blockade @ 10 μM: 10 μM compound; for inhibition at 10 µM: read-out: IMR 32 % of Blockade @ 10 μM; for IC50: K+-stimulated Ca2+ flux, 5 μM nitrendipine to block L-type channels
Procedure: Measurement of N-type Ca^2+ Channel Blocking Potencies of Compounds in IMR-32 Cells Using the Fluorescent Ca^2+Indicator Indo-1
IMR-32 cells are a human tumoral cell line of neural origin. […] Calcium flux into these cells may be induced by stimulation with elevated potassium concentrations. The L-channel component of calcium flux may be blocked by adding 5 μM nitrendipine. The remaining component of calcium entry into the IMR-32 cells is due to calcium flux through N-type calcium channels. Intracellular calcium concentrations are measured using the fluorescent calcium indicator Indo-1. The effect of drug concentration on calcium uptake is studied.
The IMR-32 cell line was obtained from the American Type Culture Collection (Rockville, Md.). Cells were grown in Eagle's Minimum Essential Medium with Earle's salts supplemented with 10% fetal bovine serum, 2 mM L-Gln and antibiotic/antimycotic mixture (Gibco). […] After 7 to 13 days of differentiation, cells were detached using 0.5 mM EDTA and loaded with 5 μM Indo-1 acetoxymethyl ester (Molecular Probes, Eugene, Oreg.) at 30° C. for 45 minutes. Loaded cells were washed twice, resuspended (˜10^7 cells/mL) in assay buffer (10 mM HEPES/Tris pH 7.4 in Hank's Balanced Salt Solution without bicarbonate or phenol red containing 0.5% bovine serum albumin) and kept on ice until use. Fluorescence measurements were carried out in a Photon Technology International (PTI, South Brunswick, N.J.) Model RF-F3004 spectrofluorometer with dual emission monochromators using excitation at […] and emission at 400 and 490 nm. The instrument was equipped with a thermostated cuvette holder with stirring capabilities as well as with a computer-controlled pump which allowed for reagent addition during measurement. Instrument control and data collection was done by PTI's OSCAR software running on an IBM compatible computer. Different concentrations of the test compounds (60 μL in dimethyl sulfoxide) were added to 5.94 mL of assay buffer containing approximately 3×10^6 loaded cells, and 5 μM Nitrendipine (in […] EtOH) to block L-type Ca^2+ channels. Samples were incubated for 10 minutes at 30° C. and then aliquoted into three 10×10 mm disposable acrylic cuvettes. Emission signals at 400 and 490 nm were acquired from each cuvette at 30° C. for 50 seconds. At 20 seconds after the start of reading, cells were depolarized by the addition of 160 μL of stimulation solution (1 M KCl, 68 mM CaCl2) to the cuvette via the computer-controlled pump. Ratio of dual emission signals (400 nm/490 nm), which is proportional to intracellular Ca^2+ concentration, was plotted against time, and the difference between maximal response after stimulation and basal value (before stimulation) was determined. Values obtained in this way were plotted as a function of drug concentration. IC50 values of test compounds were calculated by fitting a four-parameter logistic function to the data using the least squares method.

T1 sequence (Q00975 whole entry): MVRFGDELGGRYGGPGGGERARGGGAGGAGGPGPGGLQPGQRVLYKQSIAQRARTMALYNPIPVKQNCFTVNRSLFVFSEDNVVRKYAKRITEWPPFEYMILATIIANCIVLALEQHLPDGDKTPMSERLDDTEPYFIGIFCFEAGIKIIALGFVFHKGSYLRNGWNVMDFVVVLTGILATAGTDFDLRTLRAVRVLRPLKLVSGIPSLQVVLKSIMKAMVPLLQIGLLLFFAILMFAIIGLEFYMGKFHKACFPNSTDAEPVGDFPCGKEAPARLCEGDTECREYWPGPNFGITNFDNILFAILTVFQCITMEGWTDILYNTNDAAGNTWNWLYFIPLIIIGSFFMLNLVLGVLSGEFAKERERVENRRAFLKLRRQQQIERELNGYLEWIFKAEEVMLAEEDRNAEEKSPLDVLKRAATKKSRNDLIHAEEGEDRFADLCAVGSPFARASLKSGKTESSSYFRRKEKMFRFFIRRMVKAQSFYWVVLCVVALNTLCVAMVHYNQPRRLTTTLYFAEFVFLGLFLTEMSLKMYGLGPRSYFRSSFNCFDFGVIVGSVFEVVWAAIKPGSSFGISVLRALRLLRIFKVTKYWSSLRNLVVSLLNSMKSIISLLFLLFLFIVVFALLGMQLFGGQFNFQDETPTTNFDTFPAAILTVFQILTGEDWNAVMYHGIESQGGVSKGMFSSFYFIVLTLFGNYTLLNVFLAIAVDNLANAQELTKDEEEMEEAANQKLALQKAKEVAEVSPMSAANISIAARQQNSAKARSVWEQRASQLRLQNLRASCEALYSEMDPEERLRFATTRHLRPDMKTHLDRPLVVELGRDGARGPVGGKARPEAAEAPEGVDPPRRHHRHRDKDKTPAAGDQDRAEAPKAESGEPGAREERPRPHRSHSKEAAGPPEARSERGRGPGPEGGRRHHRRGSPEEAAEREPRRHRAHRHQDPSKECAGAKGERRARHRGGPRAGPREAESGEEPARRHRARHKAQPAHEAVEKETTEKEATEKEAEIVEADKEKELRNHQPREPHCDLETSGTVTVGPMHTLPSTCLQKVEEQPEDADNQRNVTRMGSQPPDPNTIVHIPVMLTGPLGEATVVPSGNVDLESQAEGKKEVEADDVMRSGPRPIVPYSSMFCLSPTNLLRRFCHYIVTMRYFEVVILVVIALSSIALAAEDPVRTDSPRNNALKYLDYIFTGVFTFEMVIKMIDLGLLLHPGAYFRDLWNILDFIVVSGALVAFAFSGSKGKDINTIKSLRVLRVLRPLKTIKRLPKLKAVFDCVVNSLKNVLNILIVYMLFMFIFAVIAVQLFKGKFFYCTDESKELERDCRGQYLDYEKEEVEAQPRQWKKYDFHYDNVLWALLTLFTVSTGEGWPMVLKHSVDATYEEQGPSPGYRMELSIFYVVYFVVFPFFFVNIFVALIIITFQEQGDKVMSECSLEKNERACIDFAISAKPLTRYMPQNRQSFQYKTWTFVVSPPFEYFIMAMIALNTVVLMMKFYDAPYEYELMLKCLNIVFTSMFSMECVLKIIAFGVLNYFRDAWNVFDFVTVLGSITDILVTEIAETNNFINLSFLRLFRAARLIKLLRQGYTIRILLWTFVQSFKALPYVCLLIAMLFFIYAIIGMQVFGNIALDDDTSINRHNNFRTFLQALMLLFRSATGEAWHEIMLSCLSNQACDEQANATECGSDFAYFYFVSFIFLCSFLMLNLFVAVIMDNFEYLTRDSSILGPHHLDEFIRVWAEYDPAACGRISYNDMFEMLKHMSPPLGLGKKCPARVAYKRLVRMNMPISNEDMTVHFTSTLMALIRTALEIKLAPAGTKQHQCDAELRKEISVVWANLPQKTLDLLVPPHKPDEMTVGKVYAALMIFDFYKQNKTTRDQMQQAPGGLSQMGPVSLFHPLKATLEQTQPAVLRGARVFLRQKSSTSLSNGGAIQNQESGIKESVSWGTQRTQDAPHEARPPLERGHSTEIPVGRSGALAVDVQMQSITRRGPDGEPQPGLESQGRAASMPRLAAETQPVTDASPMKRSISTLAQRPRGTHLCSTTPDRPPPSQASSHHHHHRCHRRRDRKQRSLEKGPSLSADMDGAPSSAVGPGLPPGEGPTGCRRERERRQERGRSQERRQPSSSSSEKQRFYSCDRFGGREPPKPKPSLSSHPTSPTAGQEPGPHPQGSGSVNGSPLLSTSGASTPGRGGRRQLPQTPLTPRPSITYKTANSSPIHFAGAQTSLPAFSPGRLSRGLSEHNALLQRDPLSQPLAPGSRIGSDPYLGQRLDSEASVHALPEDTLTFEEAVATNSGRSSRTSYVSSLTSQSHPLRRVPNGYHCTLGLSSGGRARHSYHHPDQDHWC
T1 sequence (P54289 25-956 partner limits assumed): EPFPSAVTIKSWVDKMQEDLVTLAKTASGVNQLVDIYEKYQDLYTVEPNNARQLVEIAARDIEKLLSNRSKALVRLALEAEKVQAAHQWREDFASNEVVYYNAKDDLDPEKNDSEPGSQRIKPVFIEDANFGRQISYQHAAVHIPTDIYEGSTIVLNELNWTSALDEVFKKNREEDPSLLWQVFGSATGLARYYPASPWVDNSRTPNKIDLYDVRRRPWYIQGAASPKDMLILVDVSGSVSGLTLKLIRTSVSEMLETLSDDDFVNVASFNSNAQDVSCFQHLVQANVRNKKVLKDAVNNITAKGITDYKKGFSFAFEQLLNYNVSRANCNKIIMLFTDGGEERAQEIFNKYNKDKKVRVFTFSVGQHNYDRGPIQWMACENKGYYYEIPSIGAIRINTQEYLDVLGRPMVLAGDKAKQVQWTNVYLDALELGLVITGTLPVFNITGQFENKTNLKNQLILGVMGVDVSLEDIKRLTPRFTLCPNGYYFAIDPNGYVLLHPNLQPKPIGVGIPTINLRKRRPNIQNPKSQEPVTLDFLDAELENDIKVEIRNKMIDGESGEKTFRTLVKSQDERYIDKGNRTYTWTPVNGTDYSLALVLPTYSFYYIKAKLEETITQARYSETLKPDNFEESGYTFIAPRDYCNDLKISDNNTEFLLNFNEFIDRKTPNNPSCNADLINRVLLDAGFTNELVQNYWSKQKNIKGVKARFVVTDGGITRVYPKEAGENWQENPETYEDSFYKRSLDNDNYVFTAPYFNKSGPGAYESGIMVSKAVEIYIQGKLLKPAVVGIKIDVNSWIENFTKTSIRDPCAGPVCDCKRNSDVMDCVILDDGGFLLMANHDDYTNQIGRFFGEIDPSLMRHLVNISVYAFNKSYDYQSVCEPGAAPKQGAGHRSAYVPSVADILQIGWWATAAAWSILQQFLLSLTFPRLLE
T1 sequence (P54289 957-1103 partner limits assumed): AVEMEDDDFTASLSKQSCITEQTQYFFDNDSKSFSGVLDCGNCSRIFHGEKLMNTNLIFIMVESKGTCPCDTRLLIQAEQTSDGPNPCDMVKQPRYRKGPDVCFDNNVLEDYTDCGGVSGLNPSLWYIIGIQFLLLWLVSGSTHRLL
T1 sequence (Q02641 whole entry partner): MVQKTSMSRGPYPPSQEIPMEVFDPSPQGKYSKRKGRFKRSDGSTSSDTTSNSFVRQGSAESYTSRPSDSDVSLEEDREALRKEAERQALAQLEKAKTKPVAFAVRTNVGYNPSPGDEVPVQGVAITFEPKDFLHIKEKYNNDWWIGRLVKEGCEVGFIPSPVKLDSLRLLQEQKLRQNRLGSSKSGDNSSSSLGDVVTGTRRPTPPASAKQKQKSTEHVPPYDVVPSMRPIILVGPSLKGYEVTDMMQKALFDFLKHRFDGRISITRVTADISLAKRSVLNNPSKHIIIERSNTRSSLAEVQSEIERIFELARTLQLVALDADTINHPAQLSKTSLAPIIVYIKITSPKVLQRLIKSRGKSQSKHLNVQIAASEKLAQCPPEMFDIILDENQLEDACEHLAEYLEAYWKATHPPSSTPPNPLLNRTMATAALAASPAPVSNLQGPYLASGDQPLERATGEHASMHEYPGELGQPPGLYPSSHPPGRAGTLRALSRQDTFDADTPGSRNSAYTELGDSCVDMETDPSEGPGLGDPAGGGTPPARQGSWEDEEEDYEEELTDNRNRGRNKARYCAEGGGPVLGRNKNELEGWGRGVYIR

SMILES: CC(C)CCN(C)[C@@H](CC(C)C)C(=O)NC(C)(C)CN(c1ccc(OCc2ccccc2)cc1)C1C=CCCC1 (stereo partly drawn) [Example 17, (S)-4-Methyl-2-[methyl-(3-methyl-butyl)-amino]-pentanoic acid {2-[(4-benzyloxy-phenyl)-cyclohex-2-enyl-amino]-1,1-dimethyl-ethyl}-amide]
- inhibition at 1 µM (5 μM nitrendipine): 57%
- inhibition at 10 µM (5 μM nitrendipine): 80%

SMILES: CC(C)=CCN(C[C@H](C)NC(=O)[C@H](CC(C)C)NC(=O)N1CCCCCC1)c1ccc(OCc2ccccc2)cc1 (relative stereo) [Example 2, [S-(R*,R*)]-Azepane-1-carboxylic acid (1-{2-[(4-benzyloxy-phenyl)-(3-methyl-but-2-enyl)-amino]-1-methyl-ethylcarbamoyl}-3-methyl-butyl)-amide]
- IMR 32 % of Blockade @ 1 μM (5 μM nitrendipine): 50% @ 1

SMILES: CC(C)=CCN(C[C@H](C)NC(=O)[C@H](CC(C)C)N(CC=C(C)C)CC=C(C)C)c1ccc(OCc2ccccc2)cc1 (relative stereo) [Example 19, [S-(R*,R*)]-2-{Bis]-(3-methyl-but-2-enylamino)-4-Methyl-pentanoic acid {2-[(4-benzyloxy-phenyl)-(3-methyl-but-2-enyl)-amino]-1-methyl-ethyl 1-amide]
- IMR 32 % of Blockade @ 1 μM (5 μM nitrendipine): 74%
- IMR 32 % of Blockade @ 10 μM (5 μM nitrendipine): 70%

SMILES: CC(C)=CCN(CC(C)(C)NC(=O)[C@H](CC(C)C)N(C)C)c1ccc(OCc2ccccc2)cc1 [Example 9, (S)-2-Dimethylamino-4-methyl-pentanoic acid {2-[(4-benzyloxy-phenyl)-(3-methyl-but-2-enyl)-amino]-1,1-dimethyl-ethyl}-amide]
- IC50: 1.6 µM

SMILES: CC(C)=CCN(c1ccc(OCc2ccccc2)cc1)C1CCN(C(=O)[C@H](CC(C)C)NC(=O)N2CCCCCC2)CC1 [Example 5, (S)-Azepane-1-carboxylic acid (1-{4-[(4-benzyloxy-phenyl)-(3-methyl-but-2-enyl)-amino]-piperidine-1-carbonyl}-3-methyl-butyl)-amide hydrochloride salt]
- IC50: 0.5 µM

SMILES: CC(C)=CCN(C[C@H](C)NC(=O)[C@H](CC(C)C)N(C)C)c1ccc(OCc2ccccc2)cc1 (relative stereo) [Example 14, [S-(R*,R*)]-2-Dimethylamino-4-methyl-pentanoic acid {2-[(4-benzyloxy-phenyl)-(3-methyl-but-2-enyl)-amino]-1-methyl-ethyl}-amide]
- IMR 32 % of Blockade @ 1 μM (5 μM nitrendipine): 36%
- IMR 32 % of Blockade @ 10 μM (5 μM nitrendipine): 86%

SMILES: CC(C)=CCN(CC(C)(C)NC(=O)[C@H](CC(C)C)N(C)CCC(C)C)c1ccc(OCc2ccccc2)cc1 [Example 11, (S)-4-Methyl-2-[methyl-(3-methyl-butyl)-amino]-pentanoic acid {2-[(4-benzyloxy-phenyl)-(3-methyl-but-2-enyl)-amino]-1.1-dimethyl-ethyl}-amide]
- IMR 32 % of Blockade @ 1 μM (5 μM nitrendipine): 49%
- IMR 32 % of Blockade @ 10 μM (5 μM nitrendipine): 91%

SMILES: CC(C)=CCN[C@@H](CC(C)C)C(=O)N[C@@H](C)CN(CC=C(C)C)c1ccc(OCc2ccccc2)cc1 (relative stereo) [Example 15, [S-(R*,R*)]-4-Methyl-2-(3-methyl-but-2-enylamino)-pentanoic acid {2-[(4-benzyloxy-phenyl)-(3-methyl-but-2-enyl)-amino]-1-methyl-ethyl}-amide]
- IMR 32 % of Blockade @ 0.3 μM (0.3 μM compound, 5 μM nitrendipine): 21%
- IMR 32 % of Blockade @ 3 μM (3 μM compound, 5 μM nitrendipine): 65%

SMILES: CC(C)=CCN(CC(C)(C)NC(=O)[C@H](CC(C)C)N(C)Cc1ccc(C(C)(C)C)cc1)c1ccc(OCc2ccccc2)cc1 [Example 13, (S)-2-[(4-tert-Butyl-benzyl)-methyl-amino]-4-methyl-pentanoic acid {2-[(4-benzyloxy-phenyl)-(3-methyl-but-2-enyl)-amino]-1.1-dimethyl-ethyl}-amide]
- IC50: 5.6 µM

SMILES: CC(C)=CCN(C[C@H](C)NC(=O)[C@H](CC(C)C)NCCC(C)C)c1ccc(OCc2ccccc2)cc1 (relative stereo) [Example 16, [S-(R*,R*)]-4-Methyl-2-(3-methyl-butylamino)-pentanoic acid {2-[(4-benzyloxy-phenyl)-(3-methyl-but-2-enyl)-amino]-1-methyl-ethyl}-amide]
- IMR 32 % of Blockade @ 1 μM (5 μM nitrendipine): 36%
- IMR 32 % of Blockade @ 10 μM (5 μM nitrendipine): 86%

The remaining lines, values ahead:

- IC50: 0.17 µM
SMILES: CC(C)=CCN(c1ccc(NC(=O)OCc2ccccc2)cc1)C1CCN(C(=O)[C@H](CC(C)C)NC(=O)N2CCCCCC2)CC1 [Example 33, (S)-{4-[(1-{2-[(Azepane-1-carbonyl)-amino]-4-methyl-pentanoyl}-piperidin-4-yl)-(3-methyl-but-2-enyl)-amino]-phenyl}-carbamic acid benzyl ester]

- inhibition at 1 µM (5 μM nitrendipine): 41%
- inhibition at 10 µM (5 μM nitrendipine): 91%
SMILES: CC(C)=CCN(c1ccc(OCc2ccccc2)cc1)C1CCCN(C(=O)[C@H](CC(C)C)NC(=O)N2CCCCCC2)C1 (mixture of isomers) [Example 46, (S,R/S)-Azepane-1-carboxylic acid (1-{3-[(4-benzyloxy-phenyl)-(3-methyl-but-2-enyl)-amino]-piperidine-1-carbonyl}-3-methyl-butyl)-amide]

- IC50: 0.29 µM
SMILES: CC(C)CCN(c1ccc(NCC2CCCCC2)cc1)C1CCN(C(=O)[C@H](CC(C)C)NC(=O)N2CCCCCC2)CC1 [Example 37, (S)-Azepane-1-carboxylic acid (1-{4-[[4-(Cyclohexylmethyl-amino)-phenyl]-(3-methyl-butyl)-amino]-piperidine-1-carbonyl}-3-methyl-butyl)-amide]

- IC50: 0.83 µM
SMILES: CCN(c1ccc(OCc2ccccc2)cc1)C1CCN(C(=O)[C@H](CC(C)C)NC(=O)N2CCCCCC2)CC1 [Example 30, (S)-Azepane-1-carboxylic acid (1-{4-[(4-benzyloxy-phenyl)-ethyl-amino]-piperidine-1-carbonyl}-3-methyl-butyl)-amide]

- IC50: 0.51 µM
SMILES: CC(C)=CCN(c1ccc(OCc2ccccc2)cc1)C1CCN(C(=O)[C@H](CC(C)C)NC2CCCCC2)CC1 [Example 26, (S)-1-{4-[(4-Benzyloxy-phenyl)-(3-methyl-but-2-enyl)-amino]-piperidin-1-yl}-2-cyclohexylamino-4-methyl-pentan-1-one]

- inhibition at 1 µM (5 μM nitrendipine): 83%
SMILES: CC(C)CCN(c1ccc(NC(=O)OCc2ccccc2)cc1)C1CCN(C(=O)[C@H](CC(C)C)NC(=O)N2CCCCCC2)CC1 [Example 34, (S)-{4-[(1-{2-[(Azepane-1-carbonyl)-amino]-4-methyl-pentanoyl}-piperidin-4-yl)-(3-methyl-butyl)-amino]-phenyl}-carbamic acid benzyl ester]

- inhibition at 1 µM (5 μM nitrendipine): 43%
- inhibition at 10 µM (5 μM nitrendipine): 92%
SMILES: CC(C)=CCN(c1ccc(OCc2ccccc2)cc1)C1CCN(C(=O)[C@H](N)CC(C)C)CC1 [Example 21, (R)-2-Amino-1-{4-[(4-benzyloxy-phenyl)-(3-methyl-but-2-enyl)-amino]-piperidin-1-yl}-4-methyl-pentan-1-one]

- IC50: 0.43 µM
SMILES: CC(C)C[C@H](NC(=O)N1CCCCCC1)C(=O)N1CCC(N(Cc2ccccc2)c2ccc(OCc3ccccc3)cc2)CC1 [Example 31, (S)-Azepane-1-carboxylic acid (1-{4-[benzyl-(4-benzyloxy-phenyl)-amino]-piperidine-1-carbonyl}-3-methyl-butyl)-amide]

- IC50: 0.4 µM
SMILES: CC(C)CCN(c1ccc(NCc2ccccc2)cc1)C1CCN(C(=O)[C@H](CC(C)C)NC(=O)N2CCCCCC2)CC1 [Example 39, (S)-Azepane-1-carboxylic acid (1-{4-[(4-benzylamino-phenyl)-(3-methyl-butyl)-amino]-piperidine-1-carbonyl}-3-methyl-butyl)-amide]

- IC50: 3.4 µM
SMILES: CC(C)=CCN(c1ccc(C#CC2(O)CCCCC2)cc1)C1CCN(C(=O)C(CC(C)C)NC(=O)N2CCCCCC2)CC1 (stereo in doubt) [Example 43, (S)-Azepane-1-carboxylic acid (1-{4-[[4-(1-hydroxy-cyclohexylethynyl)-phenyl]-(3-methyl-but-2-enyl)-amino]-piperidine-1-carbonyl}-3-methyl-butyl)-amide]

- IC50: 1.1 µM
SMILES: CC(C)CCN(c1ccc(NCc2ccccn2)cc1)C1CCN(C(=O)[C@H](CC(C)C)NC(=O)N2CCCCCC2)CC1 [Example 40]
